In patent publication US20250090540A1, “PI3K-ALPHA INHIBITORS AND METHODS OF USE THEREOF” (Relay Therapeutics, Inc., priority 2021, published 2025):
Read-outs that look alike come from different tables or passages of the source.

How the values were obtained:
H1047R PIK3CA enzyme = H1047R PIK3CA enzyme (Homo sapiens, UniProt P42336, H1047R); experiment: ADP-Glo Biochemical PIK3CA Kinase Assay
cells = details: Homo sapiens, MCF-10A, read-out: MCF10A I50
[1] = ADP-Glo biochemical PIK3CA kinase assay

H1047R PIK3CA enzyme, sequence (P42336 whole entry H1047R): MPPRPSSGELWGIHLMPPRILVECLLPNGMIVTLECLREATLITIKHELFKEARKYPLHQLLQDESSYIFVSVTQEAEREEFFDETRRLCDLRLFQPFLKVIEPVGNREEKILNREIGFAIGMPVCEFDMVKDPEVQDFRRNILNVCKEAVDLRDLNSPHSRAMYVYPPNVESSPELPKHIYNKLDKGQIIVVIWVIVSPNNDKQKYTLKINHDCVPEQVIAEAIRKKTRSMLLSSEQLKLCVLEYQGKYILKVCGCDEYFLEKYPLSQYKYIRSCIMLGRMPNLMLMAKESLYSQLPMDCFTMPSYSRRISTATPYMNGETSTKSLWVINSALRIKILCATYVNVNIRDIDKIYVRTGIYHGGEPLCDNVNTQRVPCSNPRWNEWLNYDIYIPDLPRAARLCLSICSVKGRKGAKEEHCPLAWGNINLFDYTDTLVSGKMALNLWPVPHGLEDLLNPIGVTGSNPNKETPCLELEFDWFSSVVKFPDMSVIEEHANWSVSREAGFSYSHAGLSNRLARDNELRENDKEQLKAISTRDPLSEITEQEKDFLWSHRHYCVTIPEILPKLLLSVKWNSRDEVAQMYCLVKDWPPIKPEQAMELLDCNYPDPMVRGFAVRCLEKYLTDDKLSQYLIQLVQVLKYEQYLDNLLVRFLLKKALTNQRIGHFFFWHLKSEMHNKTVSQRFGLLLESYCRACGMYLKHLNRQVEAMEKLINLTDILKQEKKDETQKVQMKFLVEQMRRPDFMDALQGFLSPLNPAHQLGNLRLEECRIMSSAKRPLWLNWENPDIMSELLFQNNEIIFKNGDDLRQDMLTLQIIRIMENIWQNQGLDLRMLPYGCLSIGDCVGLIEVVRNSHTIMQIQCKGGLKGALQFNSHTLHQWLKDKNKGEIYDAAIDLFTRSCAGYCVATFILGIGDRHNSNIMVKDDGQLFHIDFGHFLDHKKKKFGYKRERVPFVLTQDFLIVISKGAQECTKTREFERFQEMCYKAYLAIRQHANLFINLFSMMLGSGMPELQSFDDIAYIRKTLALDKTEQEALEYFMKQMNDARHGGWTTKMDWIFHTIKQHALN
H1047R PIK3CA enzyme, sequence (P27986 whole entry partner): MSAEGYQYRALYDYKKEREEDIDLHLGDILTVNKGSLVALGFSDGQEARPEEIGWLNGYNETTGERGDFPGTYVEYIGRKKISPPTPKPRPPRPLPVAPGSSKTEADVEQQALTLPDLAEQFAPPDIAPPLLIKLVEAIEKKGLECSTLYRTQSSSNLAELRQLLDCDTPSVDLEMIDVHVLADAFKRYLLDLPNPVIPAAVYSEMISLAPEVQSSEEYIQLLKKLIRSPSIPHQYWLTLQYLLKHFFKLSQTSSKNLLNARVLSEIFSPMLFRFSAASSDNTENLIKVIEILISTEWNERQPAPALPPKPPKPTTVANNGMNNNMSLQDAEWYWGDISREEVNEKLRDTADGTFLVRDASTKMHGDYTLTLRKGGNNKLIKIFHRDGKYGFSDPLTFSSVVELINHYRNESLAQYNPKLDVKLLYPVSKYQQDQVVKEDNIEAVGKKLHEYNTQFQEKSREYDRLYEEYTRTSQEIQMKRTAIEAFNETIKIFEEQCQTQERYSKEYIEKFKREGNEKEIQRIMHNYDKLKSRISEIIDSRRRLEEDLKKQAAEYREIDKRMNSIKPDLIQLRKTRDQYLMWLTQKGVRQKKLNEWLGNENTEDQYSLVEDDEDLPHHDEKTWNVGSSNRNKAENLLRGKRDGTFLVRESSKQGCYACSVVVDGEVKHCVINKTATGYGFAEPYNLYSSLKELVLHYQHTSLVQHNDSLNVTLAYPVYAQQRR

Row | SMILES | IC50 (H1047R PIK3CA enzyme) | IC50 (cells) | IC50 (H1047R PIK3CA enzyme; [1])
1 | Cc1ccccc1Nc1cc(=O)n(Cc2ccccc2C#N)cc1NC(=O)c1csc2ccccc12 [I-279] | 0.1 to 0.5 µM | 10 to 36 µM | 
2 | CNC(=O)c1cnc(Nc2ccc(F)cc2)c(NC(=O)c2cc(F)cc(C(F)(F)F)c2)c1 [I-285] | 0.5 to 1 µM | 10 to 36 µM | 
3 | CNC(=O)c1cnc(Nc2cccc(N)c2)c(NC(=O)c2cc(F)cc(C(F)(F)F)c2)c1 [I-286] | 1 to 10 µM | 10 to 36 µM | 
4 | CNC(=O)c1cnc(Nc2cccc(Cl)c2)c(NC(=O)c2cc(F)cc(C(F)(F)F)c2)c1 [I-287] | 1 to 10 µM | 36 to 100 µM | 
5 | CCOc1ccccc1Nc1ncc(C(=O)NC)cc1NC(=O)c1cc(F)cc(C(F)(F)F)c1 [I-288] | 10 to 100 µM | 36 to 100 µM | 
6 | CNC(=O)c1cnc(Nc2cn(C)nc2C)c(NC(=O)c2cc(F)cc(C(F)(F)F)c2)c1 [I-289] | 10 to 100 µM | 36 to 100 µM | 
7 | CNC(=O)c1cnc(Nc2cccc(Cl)c2C)c(NC(=O)c2cc(F)cc(C(F)(F)F)c2)c1 [I-290] | 1 to 10 µM | 36 to 100 µM | 
8 | CNC(=O)c1cnc(Nc2ncco2)c(NC(=O)c2cc(F)cc(C(F)(F)F)c2)c1 [I-291] | 10 to 100 µM | 36 to 100 µM | 
9 | CNC(=O)c1cnc(Nc2cccc(C(F)(F)F)c2)c(NC(=O)c2cc(F)cc(C(F)(F)F)c2)c1 [I-292] | 1 to 10 µM | 10 to 36 µM | 
10 | CNC(=O)c1cnc(Nc2ccccc2Cl)c(NC(=O)c2cc(F)cc(C(F)(F)F)c2)c1 [I-293] | 0.1 to 0.5 µM | 1 to 5 µM | 
11 | CNC(=O)c1cnc(Nc2cccc(C)c2Cl)c(NC(=O)c2cc(F)cc(C(F)(F)F)c2)c1 [I-294] | 1 to 10 µM | 36 to 100 µM | 
12 | CNC(=O)c1cnc(Nc2ccc(C#N)cc2)c(NC(=O)c2cc(F)cc(C(F)(F)F)c2)c1 [I-295] | 1 to 10 µM | 36 to 100 µM | 
13 | CNC(=O)c1cnc(Nc2cccc(F)c2F)c(NC(=O)c2cc(F)cc(C(F)(F)F)c2)c1 [I-296] | 0.1 to 0.5 µM | 5 to 10 µM | 
14 | CNC(=O)c1cnc(Nc2cccc(C(C)(C)C)c2)c(NC(=O)c2cc(F)cc(C(F)(F)F)c2)c1 [I-297] | 1 to 10 µM | 36 to 100 µM | 
15 | CNC(=O)c1cnc(Nc2ccccc2C(C)C)c(NC(=O)c2cc(F)cc(C(F)(F)F)c2)c1 [I-298] | 1 to 10 µM | 36 to 100 µM | 
16 | CNC(=O)c1cnc(Nc2nccs2)c(NC(=O)c2cc(F)cc(C(F)(F)F)c2)c1 [I-299] | 10 to 100 µM | 36 to 100 µM | 
17 | CNC(=O)c1cnc(Nc2ccccc2F)c(NC(=O)c2cc(F)cc(C(F)(F)F)c2)c1 [I-300] | 1 to 10 µM | 36 to 100 µM | 
18 | CNC(=O)c1cnc(Nc2nc(C)c(C)s2)c(NC(=O)c2cc(F)cc(C(F)(F)F)c2)c1 [I-301] | 0.5 to 1 µM | 10 to 36 µM | 
19 | CNC(=O)c1cnc(Nc2cccc(F)c2C)c(NC(=O)c2cc(F)cc(C(F)(F)F)c2)c1 [I-302] | 0.5 to 1 µM | 5 to 10 µM | 
20 | CNC(=O)c1cnc(Nc2cccc(F)c2OC)c(NC(=O)c2cc(F)cc(C(F)(F)F)c2)c1 [I-303] | 1 to 10 µM | 36 to 100 µM | 
21 | CNC(=O)c1cnc(Nc2nc(C)cs2)c(NC(=O)c2cc(F)cc(C(F)(F)F)c2)c1 [I-304] | 1 to 10 µM | 36 to 100 µM | 
22 | CNC(=O)c1cnc(Nc2nn(C)cc2Br)c(NC(=O)c2cc(F)cc(C(F)(F)F)c2)c1 [I-305] | 10 to 100 µM | 36 to 100 µM | 
23 | Cc1ccccc1Nc1ncc(CNS(=O)(=O)c2ccccc2)cc1NC(=O)c1cc(F)cc(C(F)(F)F)c1 [I-307] | 0.1 to 0.5 µM | 1 to 5 µM | 

Row | SMILES | IC50 (H1047R PIK3CA enzyme) | IC50 (cells) | IC50 (H1047R PIK3CA enzyme; [1])
24 | Cc1ccccc1Nc1cc(=O)[nH]cc1NC(=O)c1csc2ccccc12 [I-308] | 1 to 10 µM | 36 to 100 µM | 
25 | COC(=O)Cn1cc(NC(=O)c2csc3ccccc23)c(Nc2ccccc2C)cc1=O [I-309] | 1 to 10 µM | 36 to 100 µM | 
26 | Cc1ccccc1Nc1cc(=O)n(CC(=O)O)cc1NC(=O)c1csc2ccccc12 [I-310] | 10 to 100 µM | 36 to 100 µM | 
27 | Cc1ccccc1Nc1ncc(C(=O)NC2C[S+]([O-])C2)cc1NC(=O)c1csc2ccccc12 (stereo not drawn) [I-311] | ≤ 0.1 µM | 1 to 5 µM | 
28 | CNC(=O)c1cnc(Nc2ccccc2C)c(NC(=O)c2cc(F)cc(OC(F)(F)F)c2)c1 [I-312] | 1 to 10 µM | 36 to 100 µM | 
29 | CNC(=O)c1cnc(Nc2ccccc2C)c(NC(=O)c2cc(F)cc(C#N)c2)c1 [I-313] | 1 to 10 µM | 10 to 36 µM | 
30 | O=C(NCCN1CCOCC1)c1cnc(N2CCOc3ccccc32)c(NC(=O)c2csc3ccccc23)c1 [I-316] | 1 to 10 µM | 36 to 100 µM | 
31 | C[C@]1(O)C[C@@H](NC(=O)c2cnc(N3CCOc4ccccc43)c(NC(=O)c3csc4ccccc34)c2)C1 [I-317] | 0.1 to 0.5 µM | 5 to 10 µM | 
32 | CC(=O)N1CC(NC(=O)c2cnc(N3CCOc4ccccc43)c(NC(=O)c3cc(F)cc(C(F)(F)F)c3)c2)C1 [I-329] | 0.5 to 1 µM | 10 to 36 µM | 
33 | Cc1ccccc1Nc1ncc(C(=O)NC2CS(=O)(=O)C2)cc1NC(=O)c1nsc2ccccc12 [I-330] | 0.1 to 0.5 µM | 1 to 5 µM | 
34 | Cc1ccccc1Nc1ncc(C(=O)NC2C[S+]([O-])C2)cc1NC(=O)c1nsc2ccccc12 (stereo not drawn) [I-331] | 0.1 to 0.5 µM | 1 to 5 µM | 
35 | Cc1ccccc1Nc1ncc(C(=O)NC2CC(F)(F)C2)cc1NC(=O)c1nsc2ccccc12 [I-332] | 0.1 to 0.5 µM | 5 to 10 µM | 
36 | CNC(=O)c1cnc(Nc2ncccc2C)c(NC(=O)c2csc3ccccc23)c1 [I-335] | 0.5 to 1 µM | 10 to 36 µM | 
37 | CNC(=O)c1cnc(Nc2ccccc2C)c(NC(=O)c2csc3cnccc23)c1 [I-339] | 0.5 to 1 µM | 1 to 5 µM | 
38 | Cc1ccccc1Nc1cnc(C(=O)NC2CS(=O)(=O)C2)cc1NC(=O)c1cc(F)cc(C(F)(F)F)c1 [I-343] | 1 to 10 µM | < 1 µM | 
39 | O=C(NC1CC(F)(F)C1)c1cnc(N2CCOc3ccccc32)c(NC(=O)c2csc3ccccc23)c1 [I-347] | 0.1 to 0.5 µM | 1 to 5 µM | 
40 | Cc1ccccc1Nc1cc2nnc(N)n2cc1NC(=O)c1csc2ccccc12 [I-350] | 1 to 10 µM | 1 to 5 µM | 
41 | Cc1ccccc1Nc1ncc(C(=O)NC2(C)CS(=O)(=O)C2)cc1NC(=O)c1csc2ccccc12 [I-361] | 0.1 to 0.5 µM | 1 to 5 µM | 
42 | CNC(=O)c1cnc(Nc2ccccc2Cl)c(NC(=O)c2csc3ccccc23)c1 [I-362] | ≤ 0.1 µM | 10 to 36 µM | 
43 | Cc1cc(Cn2cc(NC(=O)c3csc4ccccc34)c(Nc3ccccc3C)cc2=O)no1 [I-390] | 0.1 to 0.5 µM | 10 to 36 µM | 
44 | Cc1ccccc1Nc1ncc(C(=O)N[C@H]2C[C@@H](O)C2)cc1NC(=O)c1cc(F)cc(C(F)(F)F)c1 [I-395] | 0.1 to 0.5 µM | 1 to 5 µM | 
45 | O=C(Nc1cc(C(=O)N[C@H]2C[C@H](O)C2)cnc1Nc1ccccc1)c1cc(F)cc(C(F)(F)F)c1 [I-396] | 0.1 to 0.5 µM | 1 to 5 µM | 
46 | Cc1ccccc1Nc1ncc(C(=O)N[C@H]2C[C@@H](O)C2)cc1NC(=O)c1csc2ccccc12 [I-397] | ≤ 0.1 µM | 5 to 10 µM | 

Row | SMILES | IC50 (H1047R PIK3CA enzyme) | IC50 (cells) | IC50 (H1047R PIK3CA enzyme; [1])
47 | Cc1ccccc1Nc1ncc(C(=O)NC2CC(=O)N(Cc3ccccc3)C2)cc1NC(=O)c1csc2ccccc12 (stereo not drawn) [I-398] |  | 10 to 36 µM | 0.1 to 0.5 µM
48 | Cc1ccccc1Nc1ncc(C(=O)N[C@H]2C[C@H](O)C2)cc1NC(=O)c1csc2ccccc12 [I-399] |  | 1 to 5 µM | ≤ 0.1 µM
49 | CNC(=O)c1cnc(Nc2ccccc2C)c(NC(=O)c2csc3c2CCOC3)c1 [I-402] |  | 10 to 36 µM | 1 to 10 µM
50 | CNC(=O)c1cnc(Nc2ncccc2OC)c(NC(=O)c2csc3ccccc23)c1 [I-405] |  | 36 to 100 µM | 10 to 100 µM
51 | CNC(=O)c1cnc(Nc2ccccc2C)c(NC(=O)c2coc3c(F)cc(F)cc23)c1 [I-406] |  | 1 to 5 µM | 0.5 to 1 µM
52 | CNC(=O)c1cnc(Nc2ccccc2OC)c(NC(=O)c2csc3ccccc23)c1 [I-407] |  | 36 to 100 µM | 1 to 10 µM
53 | CNC(=O)c1cnc(Nc2ccccc2C)c(NC(=O)c2coc3ccc(Cl)cc23)c1 [I-408] |  | 1 to 5 µM | 0.5 to 1 µM
54 | CNC(=O)c1cnc(Nc2ccccc2C)c(NC(=O)c2csc3ccc(OC)cc23)c1 [I-409] |  | 10 to 36 µM | 1 to 10 µM
55 | Cc1ccccc1Nc1ncc(CNC2CS(=O)(=O)C2)cc1NC(=O)c1cc(F)cc(C(F)(F)F)c1 [I-411] |  | 10 to 36 µM | 1 to 10 µM
56 | CNC(=S)c1cnc(Nc2ccccc2C)c(NC(=O)c2csc3ccccc23)c1 [I-412] |  | 10 to 36 µM | 0.1 to 0.5 µM
57 | Cc1ccccc1Nc1ncncc1NC(=O)c1csc2ccccc12 [I-413] |  | 10 to 36 µM | 1 to 10 µM
58 | CNC(=O)c1cnc(Nc2ccccc2C)c(NC(=O)c2cc3c(Cl)ccnc3[nH]2)c1 [I-424] |  | 36 to 100 µM | 10 to 100 µM
59 | Cc1ccccc1Nc1ncc(C(=O)NC2CC(=O)N(C)C2)cc1NC(=O)c1csc2ccccc12 (stereo not drawn) [I-434] |  | 5 to 10 µM | 0.1 to 0.5 µM
60 | Cc1ccccc1Nc1ncc(N2CC(S(C)(=O)=O)C2)cc1NC(=O)c1csc2ccccc12 [I-436] |  | 10 to 36 µM | 0.5 to 1 µM
61 | CNC(=O)c1cnc(Nc2ccccc2C)c(NC(=O)c2cnn3cccc(Br)c23)c1 [I-468] |  | 10 to 36 µM | 1 to 10 µM
62 | CNC(=O)c1cnc(Nc2ccccc2C)c(NC(=O)c2cc3c(Br)cccn3c2)c1 [I-486] |  | 10 to 36 µM | 0.1 to 0.5 µM
63 | Cc1ccccc1Nc1ncc(C(=O)Nc2cccnn2)cc1NC(=O)c1csc2ccccc12 [I-496] |  | 10 to 36 µM | 0.5 to 1 µM
64 | CNC(=O)c1cnc(Nc2ccccc2C)c(NC(=O)C2(c3ccccc3Cl)CC2)c1 [I-499] |  | 10 to 36 µM | ≤ 0.1 µM
65 | Cc1ccccc1Nc1ncc(C(=O)N[C@@H]2c3ccccc3C[C@@H]2O)cc1NC(=O)c1csc2ccccc12 [I-506] |  | 5 to 10 µM | 0.1 to 0.5 µM
66 | Cc1ccccc1Nc1ncc(C(=O)Nc2cn(C)cn2)cc1NC(=O)c1csc2ccccc12 [I-508] |  | 10 to 36 µM | 0.1 to 0.5 µM
67 | CNC(=O)c1cnc(Nc2ccccc2C)c(NC(=O)c2cc(Br)cc3c2cnn3C)c1 [I-510] |  | 10 to 36 µM | 0.1 to 0.5 µM
68 | COc1cnccc1CCNC(=O)c1cnc(Nc2ccccc2C)c(NC(=O)c2csc3ccccc23)c1 [I-515] |  | 10 to 36 µM | 0.1 to 0.5 µM
69 | Cc1ccccc1Nc1ncc(C(=O)NCC(F)F)cc1NC(=O)c1csc2ccccc12 [I-519] |  | 5 to 10 µM | ≤ 0.1 µM
